Data as given in patent US10487054B2, “Therapeutic compounds” (REGENTS OF THE UNIVERSITY OF MINNESOTA, priority 2017, dated 2019).

Key:
MEK1 = molecular target: T1, MEK1 (Homo sapiens, UniProt Q02750); experiment: In vitro kinase assay ([γ-32P] ATP, autoradiography); format: biochemical; settings: 0.5, 1, 3, 5 or 10 μM
T1 construct: purchased Millipore (Billerica, Mass.)
Experimental: (§1) Active TOPK (200 ng) was incubated with different concentrations of ATP (0, 10 or 100 μM) and then mixed with compound 1-conjugated Sepharose 4B beads or Sepharose 4B beads. Proteins were pulled down and analyzed by Western blot. Data are representative of 3 independent experiments that gave similar results. FIGS. 2C and 2D show compound 1 binds to either TOPK (2C) or MEK1/2 (2D) ex vivo. Lysates from HaCaT cells (500 μg) were incubated with compound 1-conjugated Sepharose 4B beads or Sepharose 4B beads alone and the pulled-down proteins were analyzed by Western blot. Data are representative of 3 independent experiments that gave similar results. FIGS. 2E and 2F show compound 1 inhibits TOPK kinase (2E) activity but not MEK1 kinase (2F) activity in vitro. Active TOPK (200 ng) was mixed with compound 1 (0, 0.5, 1, 3, or 5 μM) or HI-032 (TOPK inhibitor, 10 μM) and then incubated with a [γ-^32P] ATP mixture. Similarly, MEK1 (200 ng) was mixed with compound 1 (0, 0.5, 1, 3, 5, or 10 μM) or PD098059 (MEK1 inhibitor, 5 μM) and then incubated with a [γ-^32P] ATP mixture. For 2E and 2F, the results are visualized by autoradiography and Coomassie blue staining serves as a loading control. […]
(§2) The in vitro kinase assay was conducted according to the instructions provided by Millipore (Billerica, Mass.). […] The relative amounts of incorporated radioactivity were assessed by autoradiography.

active TOPK = molecular target: T2, active TOPK (Homo sapiens, UniProt Q96KB5); experiment: as above; format: biochemical; settings: 0.5, 1, 3 or 5 μM
T2 construct: purchased SignalChem (Richmond, BC, Canada)
T2 sequence (Q96KB5 1-322): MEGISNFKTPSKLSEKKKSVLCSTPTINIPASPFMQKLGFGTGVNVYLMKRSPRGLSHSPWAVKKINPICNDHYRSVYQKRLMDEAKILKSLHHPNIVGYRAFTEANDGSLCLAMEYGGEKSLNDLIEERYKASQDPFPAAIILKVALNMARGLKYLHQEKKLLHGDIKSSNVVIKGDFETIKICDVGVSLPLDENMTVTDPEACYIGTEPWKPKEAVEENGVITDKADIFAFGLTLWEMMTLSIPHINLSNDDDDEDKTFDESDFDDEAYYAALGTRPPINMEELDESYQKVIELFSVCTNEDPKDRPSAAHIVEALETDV
Experimental: as §1, §2

T1 sequence (Q02750 whole entry): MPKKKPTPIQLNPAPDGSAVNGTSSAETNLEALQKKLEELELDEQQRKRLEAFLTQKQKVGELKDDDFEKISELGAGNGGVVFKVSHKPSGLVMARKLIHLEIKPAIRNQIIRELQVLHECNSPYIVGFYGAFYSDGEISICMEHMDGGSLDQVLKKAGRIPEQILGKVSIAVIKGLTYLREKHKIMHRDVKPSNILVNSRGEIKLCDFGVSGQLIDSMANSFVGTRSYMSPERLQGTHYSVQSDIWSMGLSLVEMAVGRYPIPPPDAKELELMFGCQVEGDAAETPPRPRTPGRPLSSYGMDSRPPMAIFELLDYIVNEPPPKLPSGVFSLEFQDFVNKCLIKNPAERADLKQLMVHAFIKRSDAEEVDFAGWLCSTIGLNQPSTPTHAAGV

- MEK1 kinase activity (MEK1): but not MEK1 activity
- TOPK kinase activity (active TOPK): effectively inhibited
SMILES: O=C1Nc2ccc(C34CC5CC(CC(C5)C3)C4)cc2C1=NO [compound 1, 5-(adamantan-1-yl)-3-(hydroxyimino)indolin-2-one]
